What all share (format): biochemical
Conditions in all cases: 15 nM tritium labelled cAMP, 1 hr at room temperature, SPA beads

In assay [1] the target is PDE1A (Homo sapiens, UniProt P54750). Nature of the assay: PDE1 inhibition assay (PDE1A), SPA with tritium labelled cAMP. The protocol: (§1) PDE1A, PDE1B and PDE1C assays were performed as follows: the assays were performed in 60 μL samples containing a fixed amount of the PDE1 enzyme (sufficient to convert 20-25% of the cyclic nucleotide substrate), a buffer (50 mM HEPES (4-(2-hydroxyethyl)-1-piperazineethanesulfonic acid) pH 7.6; 10 mM MgCl2; 0.02% Tween20), 0.1 mg/ml BSA (bovine serum albumin), 15 nM tritium labelled cAMP and varying amounts of inhibitors. Reactions were initiated by addition of the cyclic nucleotide substrate, and reactions were allowed to proceed for 1 hr at room temperature before being terminated through mixing with 20 μL (0.2 mg) yttrium silicate SPA beads (PerkinElmer). The beads were allowed to settle for 1 hr in the dark before the plates were counted in a Wallac 1450 Microbeta counter. The measured signals were converted to activity relative to an uninhibited control (100%) and IC50 values were calculated using XIFit (model 205, IDBS).

Assay [2] deals with PDE1B (Homo sapiens, UniProt Q01064). Put plainly: PDE1 inhibition assay (PDE1B), SPA with tritium labelled cAMP. Here is the method: Reactions were initiated by addition of the cyclic nucleotide substrate, and reactions were allowed to proceed for 1 hr at room temperature before being terminated through mixing with 20 μL (0.2 mg) yttrium silicate SPA beads (PerkinElmer).
Assay [3] addresses PDE1C (Homo sapiens, UniProt Q14123). Put plainly: PDE1 inhibition assay (PDE1C), SPA with tritium labelled cAMP. Here is the method: as §1

Where two headings read alike, the source gives them in different places.

Chain of PDE1C (Q14123 whole entry): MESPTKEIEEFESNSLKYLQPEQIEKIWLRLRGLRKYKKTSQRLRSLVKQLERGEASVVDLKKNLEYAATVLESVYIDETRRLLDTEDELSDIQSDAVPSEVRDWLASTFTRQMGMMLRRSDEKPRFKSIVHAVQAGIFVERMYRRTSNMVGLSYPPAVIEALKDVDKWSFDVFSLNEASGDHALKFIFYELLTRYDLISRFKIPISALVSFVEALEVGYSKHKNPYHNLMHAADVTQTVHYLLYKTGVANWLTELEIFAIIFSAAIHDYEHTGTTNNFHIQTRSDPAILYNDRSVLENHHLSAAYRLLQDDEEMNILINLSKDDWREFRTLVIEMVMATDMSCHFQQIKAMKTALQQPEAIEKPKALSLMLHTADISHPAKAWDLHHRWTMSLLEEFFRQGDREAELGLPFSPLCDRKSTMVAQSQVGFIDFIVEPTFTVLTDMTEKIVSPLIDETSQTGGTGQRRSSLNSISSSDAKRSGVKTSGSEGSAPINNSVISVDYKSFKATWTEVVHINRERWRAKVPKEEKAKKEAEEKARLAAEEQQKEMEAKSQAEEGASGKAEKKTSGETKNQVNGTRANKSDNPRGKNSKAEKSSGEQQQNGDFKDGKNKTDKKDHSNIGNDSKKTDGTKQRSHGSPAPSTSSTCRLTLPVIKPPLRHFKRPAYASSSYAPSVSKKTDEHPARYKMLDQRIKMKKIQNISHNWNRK
Chain of PDE1B (Q01064 whole entry): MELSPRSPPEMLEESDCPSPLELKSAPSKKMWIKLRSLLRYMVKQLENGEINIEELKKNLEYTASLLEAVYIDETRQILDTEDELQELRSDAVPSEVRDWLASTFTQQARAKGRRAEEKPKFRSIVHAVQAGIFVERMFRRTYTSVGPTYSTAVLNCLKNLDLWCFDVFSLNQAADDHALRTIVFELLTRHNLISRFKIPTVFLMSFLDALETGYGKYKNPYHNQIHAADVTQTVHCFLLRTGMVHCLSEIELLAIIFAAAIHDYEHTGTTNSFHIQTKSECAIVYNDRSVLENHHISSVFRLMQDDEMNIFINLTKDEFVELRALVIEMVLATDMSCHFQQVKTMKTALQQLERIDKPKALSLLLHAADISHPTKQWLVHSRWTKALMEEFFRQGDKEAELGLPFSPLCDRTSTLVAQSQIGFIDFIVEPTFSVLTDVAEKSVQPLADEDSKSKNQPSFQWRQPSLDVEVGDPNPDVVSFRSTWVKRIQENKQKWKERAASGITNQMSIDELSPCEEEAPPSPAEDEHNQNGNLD
Chain of PDE1A (P54750 whole entry): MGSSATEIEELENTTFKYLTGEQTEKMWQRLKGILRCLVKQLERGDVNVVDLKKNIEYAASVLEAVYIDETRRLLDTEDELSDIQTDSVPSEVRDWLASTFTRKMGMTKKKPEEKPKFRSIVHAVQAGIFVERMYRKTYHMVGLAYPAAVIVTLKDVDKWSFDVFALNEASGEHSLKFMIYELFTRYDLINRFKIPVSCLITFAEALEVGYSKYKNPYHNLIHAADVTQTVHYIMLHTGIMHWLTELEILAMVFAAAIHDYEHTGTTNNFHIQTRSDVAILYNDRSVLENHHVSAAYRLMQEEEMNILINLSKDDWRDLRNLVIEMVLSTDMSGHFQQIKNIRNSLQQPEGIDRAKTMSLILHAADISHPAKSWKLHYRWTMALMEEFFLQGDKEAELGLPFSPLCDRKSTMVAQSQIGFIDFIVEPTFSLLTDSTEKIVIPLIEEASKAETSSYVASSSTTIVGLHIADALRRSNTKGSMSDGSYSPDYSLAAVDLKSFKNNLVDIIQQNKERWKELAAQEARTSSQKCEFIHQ

The IC50 is the concentration at which inhibition is half-maximal. Consider `CCOc1ncccc1-c1cc(NCc2cccc(OC)n2)c2c(C(C)C)nn(C)c2n1` [Example 41, 6-(2-ethoxy-3-pyridyl)-3-isopropyl-N-[(6-methoxy-2-pyridyl)methyl]-1-methyl-pyrazolo[3,4-b]pyridin-4-amine], for which the half-maximal inhibitory concentration (IC50) in assay [1] amounted to 440 nM; in assay [2] (read-out: PDE1B, IC50) it was 110 nM; in assay [3], 560 nM.
For `CCOc1ncccc1-c1cc(NCc2cccc(C)n2)c2c(C(C)C)nn(C)c2n1` [Example 42, 6-(2-ethoxy-3-pyridyl)-3-isopropyl-1-methyl-N-[(6-methyl-2-pyridyl)methyl]pyrazolo[3,4-b]pyridin-4-amine], the IC50 in assay [1] was determined as 180 nM; in assay [2] (read-out: PDE1B, IC50), 20 nM; in assay [3] it was 200 nM.
As to `CCOc1ncccc1-c1cc(NCc2ncon2)c2c(C(C)C)nc(C)n2n1` [Example 43, 2-(2-ethoxy-3-pyridyl)-5-isopropyl-7-methyl-N-(1,2,4-oxadiazol-3-ylmethyl)imidazo[1,5-b]pyridazin-4-amine], the concentration for half-maximal inhibition (IC50) was found to be 40 nM in assay [1]; 5.8 nM in assay [2] (read-out: PDE1B, IC50); 34 nM in assay [3].
The like results for `CCOc1ncccc1-c1cc(NCc2cnn(C)n2)c2c(C(C)C)nc(C)n2n1` [Example 44, 2-(2-ethoxy-3-pyridyl)-5-isopropyl-7-methyl-N-[(2-methyltriazol-4-yl)methyl]imidazo[1,5-b]pyridazin-4-amine] were, in that order, 38 nM, 5.1 nM and 24 nM.
The corresponding values for `CCOc1ncccc1-c1cc(NCc2nnc(C)o2)c2c(C(C)C)nc(C)n2n1` [Example 45, 2-(2-ethoxy-3-pyridyl)-5-isopropyl-7-methyl-N-[(5-methyl-1,3,4-oxadiazol-2-yl)methyl]imidazo[1,5-b]pyridazin-4-amine] are 42 nM, 7.8 nM and 37 nM.
As for `CCOc1ncccc1-c1cc(NCc2nc(C)no2)c2c(C(C)C)nc(C)n2n1` [Example 46, 2-(2-ethoxy-3-pyridyl)-5-isopropyl-7-methyl-N-[(3-methyl-1,2,4-oxadiazol-5-yl)methyl]imidazo[1,5-b]pyridazin-4-amine], the IC50 in assay [1] worked out at 21 nM; in assay [2] (read-out: PDE1B, IC50) it was 4.1 nM; in assay [3], 14 nM.
The like results for `COc1ncccc1-c1cc(NCc2ncn(C)n2)c2c(C(C)C)nn(C)c2n1` [Example 55, 3-isopropyl-6-(2-methoxy-3-pyridyl)-1-methyl-N-[(1-methyl-1,2,4-triazol-3-yl)methyl]pyrazolo[3,4-b]pyridin-4-amine] were, in that order, 130 nM, 30 nM and 45 nM.
The corresponding values for `CC(C)c1nn(C)c2nc(-c3cccn(C)c3=O)cc(NCc3ncn(C)n3)c12` [Example 56, 3-(3-isopropyl-1-methyl-4-(((1-methyl-1H-1,2,4-triazol-3-yl)methyl)amino)-1H-pyrazolo[3,4-b]pyridin-6-yl)-1-methylpyridin-2(1H)-one] are 290 nM, 52 nM and 480 nM.
The like results for `COc1nccnc1-c1cc(NCc2ncn(C)n2)c2c(C(C)C)nn(C)c2n1` [Example 57, 3-isopropyl-6-(3-methoxypyrazin-2-yl)-1-methyl-N-((1-methyl-1H-1,2,4-triazol-3-yl)methyl)-1H-pyrazolo[3,4-b]pyridin-4-amine] were, in that order, 91 nM, 22 nM and 6.5 nM.
As to `Cc1sccc1-c1cc(NCc2ncn(C)n2)c2c(C(C)C)nn(C)c2n1` [Example 58, 3-isopropyl-1-methyl-6-(2-methyl-3-thienyl)-N-[(1-methyl-1,2,4-triazol-3-yl)methyl]pyrazolo[3,4-b]pyridin-4-amine], the IC50 in assay [1] came out at 29 nM; in assay [2] (read-out: PDE1B, IC50), 4.6 nM; in assay [3], 31 nM.
For `Cc1coc(-c2cc(NCc3ncn(C)n3)c3c(C(C)C)nn(C)c3n2)n1` [Example 59, 3-isopropyl-1-methyl-N-((1-methyl-1H-1,2,4-triazol-3-yl)methyl)-6-(4-methyloxazol-2-yl)-1H-pyrazolo[3,4-b]pyridin-4-amine], the half-maximal inhibitory concentration (IC50) in assay [1] was 99 nM; in assay [2] (PDE1B, IC50 (nM)) it was 14 nM; in assay [3], 67 nM.
Consider `Cc1csc(-c2cc(NCc3ncn(C)n3)c3c(C(C)C)nn(C)c3n2)n1` [Example 60, 3-isopropyl-1-methyl-6-(4-methylthiazol-2-yl)-N-[(1-methyl-1,2,4-triazol-3-yl)methyl]pyrazolo[3,4-b]pyridin-4-amine], for which the IC50 amounted to 48 nM in assay [1]; 8.8 nM in assay [2] (read-out: PDE1B, IC50); 74 nM in assay [3].
The corresponding values for `Cc1ncsc1-c1cc(NCc2ncn(C)n2)c2c(C(C)C)nn(C)c2n1` [Example 61, 3-isopropyl-1-methyl-N-((1-methyl-1H-1,2,4-triazol-3-yl)methyl)-6-(4-methylthiazol-5-yl)-1H-pyrazolo[3,4-b]pyridin-4-amine] are 32 nM, 4.6 nM and 46 nM.
The like results for `Cc1cnc(-c2cc(NCc3ncn(C)n3)c3c(C(C)C)nn(C)c3n2)s1` [Example 62, 3-isopropyl-1-methyl-6-(5-methylthiazol-2-yl)-N-[(1-methyl-1,2,4-triazol-3-yl)methyl]pyrazolo[3,4-b]pyridin-4-amine] were, in that order, 280 nM, 170 nM and 150 nM.
As to `CC(C)c1nn(C)c2nc(-c3ccccc3)cc(NCc3ncn(C)n3)c12` [Example 63, 3-isopropyl-1-methyl-N-[(1-methyl-1,2,4-triazol-3-yl)methyl]-6-phenyl-pyrazolo[3,4-b]pyridin-4-amine], the IC50 in assay [1] is 83 nM; in assay [2] (read-out: PDE1B, IC50) it was 21 nM; in assay [3] it was 36 nM.
The corresponding values for `COc1ncncc1-c1cc(NCc2ncn(C)n2)c2c(C(C)C)nn(C)c2n1` [Example 64, 3-isopropyl-6-(4-methoxypyrimidin-5-yl)-1-methyl-N-[(1-methyl-1,2,4-triazol-3-yl)methyl]pyrazolo[3,4-b]pyridin-4-amine] are 66 nM, 13 nM and 2.9 nM.
On to `CC(C)c1nn(C)c2nc(-c3cccs3)cc(NCc3ncn(C)n3)c12` [Example 65, 3-isopropyl-1-methyl-N-[(1-methyl-1,2,4-triazol-3-yl)methyl]-6-(2-thienyl)pyrazolo[3,4-b]pyridin-4-amine], for which the IC50 turned out to be 31 nM in assay [1]; 5.1 nM in assay [2] (read-out: PDE1B, IC50); 46 nM in assay [3].
On to `CCOc1nnccc1-c1cc(NCc2ncn(C)n2)c2c(C(C)C)nn(C)c2n1` [Example 66, 6-(3-ethoxypyridazin-4-yl)-3-isopropyl-1-methyl-N-[(1-methyl-1,2,4-triazol-3-yl)methyl]pyrazolo[3,4-b]pyridin-4-amine], for which the 50% inhibitory concentration (IC50) in assay [1] was 27 nM; in assay [2] (read-out: PDE1B, IC50), 3.7 nM; in assay [3], 39 nM.
`CCCOc1nnccc1-c1cc(NCc2ncn(C)n2)c2c(C(C)C)nn(C)c2n1` [Example 67, 3-isopropyl-1-methyl-N-[(1-methyl-1,2,4-triazol-3-yl)methyl]-6-(3-propoxypyridazin-4-yl)pyrazolo[3,4-b]pyridin-4-amine]: the IC50 stood at 7.8 nM in assay [1]; 2.7 nM in assay [2] (read-out: PDE1B, IC50); 19 nM in assay [3].
As to `CCOc1cnccc1-c1cc(NCc2ncn(C)n2)c2c(C(C)C)nn(C)c2n1` [Example 68, 6-(3-ethoxy-4-pyridyl)-3-isopropyl-1-methyl-N-[(1-methyl-1,2,4-triazol-3-yl)methyl]pyrazolo[3,4-b]pyridin-4-amine], the IC50 in assay [1] amounted to 58 nM; in assay [2] (read-out: PDE1B, IC50) it was 5.5 nM; in assay [3], 59 nM.
The like results for `CCOc1nnccc1-c1cc(NCc2cnn(C)c2)c2c(C(C)C)nc(C)n2n1` [Example 69, 2-(3-ethoxypyridazin-4-yl)-5-isopropyl-7-methyl-N-[(1-methylpyrazol-4-yl)methyl]imidazo[1,5-b]pyridazin-4-amine] were, in that order, 24 nM, 5.2 nM and 25 nM.
With `CCOc1cnccc1-c1cc(NCc2cnn(C)c2)c2c(C(C)C)nc(C)n2n1` [Example 70, 2-(3-ethoxy-4-pyridyl)-5-isopropyl-7-methyl-N-[(1-methylpyrazol-4-yl)methyl]imidazo[1,5-b]pyridazin-4-amine], the IC50 is 21 nM in assay [1]; 6.3 nM in assay [2] (read-out: PDE1B, IC50); 28 nM in assay [3].
With `CCCOc1ncccc1-c1cc(NCc2cnn(C)c2)c2c(C(C)C)nc(C)n2n1` [Example 71, 5-isopropyl-7-methyl-N-[(1-methylpyrazol-4-yl)methyl]-2-(2-propoxy-3-pyridyl)imidazo[1,5-b]pyridazin-4-amine], the half-maximal inhibitory concentration (IC50) in assay [1] is 3.3 nM; in assay [2] (read-out: PDE1B, IC50) it was 1 nM; in assay [3], 7 nM.
The corresponding values for `CCCOc1ncccc1-c1cc(NCc2ncn(C)n2)c2c(C(C)C)nc(C)n2n1` [Example 72, 5-isopropyl-7-methyl-N-[(1-methyl-1,2,4-triazol-3-yl)methyl]-2-(2-propoxy-3-pyridyl)imidazo[1,5-b]pyridazin-4-amine] are 1.4 nM, 0.27 nM and 1.1 nM.

(Values after patent publication US10351561B2, “Pyrazolo[3,4-b]pyridines and imidazo[1,5-b]pyridazines as PDE1 inhibitors” (H. Lundbeck A/S, priority 2016, dated 2019).)
